In PubChem BioAssay (NCI):
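Exposure lasted 48 hours, with cells grown in 96-well plates and compounds tested at five concentrations. Definition used: TGI = concentration required for complete inhibition of growth.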

Assays:
Assay in all cases: DTP human tumour cell line panel, 48 h
UO-31 renal = tested on: UO-31 renal
CCRF-CEM leukemia = tested on: CCRF-CEM leukemia
HL-60(TB) leukemia = tested on: HL-60(TB) leukemia
SF-268 CNS = tested on: SF-268 CNS
MDA-N = tested on: MDA-N
OVCAR-3 ovarian = tested on: OVCAR-3 ovarian
SW-620 colon = tested on: SW-620 colon
EKVX NSCLC = tested on: EKVX NSCLC
IGROV1 ovarian = tested on: IGROV1 ovarian
HT29 colon = tested on: HT29 colon
ACHN renal = tested on: ACHN renal
NCI-H460 lung = tested on: NCI-H460 lung
NCI-H522 lung = tested on: NCI-H522 lung
SF-295 CNS = tested on: SF-295 CNS
LOX IMVI melanoma = tested on: LOX IMVI melanoma
NCI-H226 lung = tested on: NCI-H226 lung
OVCAR-5 ovarian = tested on: OVCAR-5 ovarian
SNB-19 CNS = tested on: SNB-19 CNS
HOP-92 NSCLC = tested on: HOP-92 NSCLC
HCT-15 colon = tested on: HCT-15 colon
KM12 colon = tested on: KM12 colon
NCI-H23 lung = tested on: NCI-H23 lung
COLO 205 colon = tested on: COLO 205 colon
SK-MEL-2 melanoma = tested on: SK-MEL-2 melanoma
MDA-MB-435 = tested on: MDA-MB-435
UACC-62 melanoma = tested on: UACC-62 melanoma
MDA-MB-231 breast = tested on: MDA-MB-231 breast
SK-OV-3 ovarian = tested on: SK-OV-3 ovarian
MALME-3M melanoma = tested on: MALME-3M melanoma
RPMI-8226 leukemia = tested on: RPMI-8226 leukemia
NCI/ADR-RES ovarian = tested on: NCI/ADR-RES ovarian
A549 NSCLC = tested on: A549 NSCLC
SNB-75 CNS = tested on: SNB-75 CNS
DU-145 prostate = tested on: DU-145 prostate
OVCAR-8 ovarian = tested on: OVCAR-8 ovarian
TK-10 renal = tested on: TK-10 renal
UACC-257 melanoma = tested on: UACC-257 melanoma
A498 renal = tested on: A498 renal
HOP-62 NSCLC = tested on: HOP-62 NSCLC
SR leukemia = tested on: SR leukemia
MOLT-4 leukemia = tested on: MOLT-4 leukemia
RXF 393 renal = tested on: RXF 393 renal
HS 578T breast = tested on: HS 578T breast
K-562 leukemia = tested on: K-562 leukemia
OVCAR-4 ovarian = tested on: OVCAR-4 ovarian
PC-3 prostate = tested on: PC-3 prostate
M14 melanoma = tested on: M14 melanoma
SF-539 CNS = tested on: SF-539 CNS
HCC-2998 colon = tested on: HCC-2998 colon
U251 CNS = tested on: U251 CNS
T-47D breast = tested on: T-47D breast
CAKI-1 renal = tested on: CAKI-1 renal
SN12C renal = tested on: SN12C renal
SK-MEL-5 melanoma = tested on: SK-MEL-5 melanoma
SK-MEL-28 melanoma = tested on: SK-MEL-28 melanoma
786-0 renal = tested on: 786-0 renal
HCT-116 colon = tested on: HCT-116 colon
BT-549 breast = tested on: BT-549 breast
MCF7 breast = tested on: MCF7 breast

CC1=C2C(=O)c3ccccc3C(=O)[C@H]2C[C@@H](N2CCCCCC2=O)O1
TGI (UO-31 renal): 33.3 µM | TGI (CCRF-CEM leukemia): 20.3 µM | TGI (HL-60(TB) leukemia): 46.3 µM | TGI (SF-268 CNS): 36.3 µM | TGI (MDA-N): 29.4 µM | TGI (OVCAR-3 ovarian): 38.2 µM | TGI (SW-620 colon): 33.1 µM | TGI (EKVX NSCLC): 57 µM | TGI (IGROV1 ovarian): 30.7 µM | TGI (HT29 colon): 71.2 µM | TGI (ACHN renal): 51.7 µM | TGI (NCI-H460 lung): 33.3 µM | TGI (NCI-H522 lung): 38.9 µM | TGI (SF-295 CNS): 35.6 µM | TGI (LOX IMVI melanoma): 44.5 µM | TGI (NCI-H226 lung): > 100 µM | TGI (OVCAR-5 ovarian): 30.4 µM | TGI (SNB-19 CNS): 39.2 µM | TGI (HOP-92 NSCLC): 36 µM | TGI (HCT-15 colon): 47.5 µM | TGI (KM12 colon): 30.7 µM | TGI (NCI-H23 lung): 31.1 µM | TGI (COLO 205 colon): 32.2 µM | TGI (SK-MEL-2 melanoma): 40 µM | TGI (MDA-MB-435): 29.7 µM | TGI (UACC-62 melanoma): 37.4 µM | TGI (MDA-MB-231 breast): 53.5 µM | TGI (SK-OV-3 ovarian): > 100 µM | TGI (MALME-3M melanoma): 25.5 µM | TGI (RPMI-8226 leukemia): 35.4 µM | TGI (NCI/ADR-RES ovarian): 49.8 µM | TGI (A549 NSCLC): 39.7 µM | TGI (SNB-75 CNS): 45.1 µM | TGI (DU-145 prostate): 32.3 µM | TGI (OVCAR-8 ovarian): 40.3 µM | TGI (TK-10 renal): 37.7 µM | TGI (UACC-257 melanoma): 31.2 µM | TGI (A498 renal): > 100 µM | TGI (HOP-62 NSCLC): 33 µM | TGI (SR leukemia): 25.7 µM | TGI (MOLT-4 leukemia): 58.5 µM | TGI (RXF 393 renal): 55.9 µM | TGI (HS 578T breast): > 100 µM | TGI (K-562 leukemia): 53.4 µM | TGI (OVCAR-4 ovarian): 32.1 µM | TGI (PC-3 prostate): 44.4 µM | TGI (M14 melanoma): 28.8 µM | TGI (SF-539 CNS): 33.7 µM | TGI (HCC-2998 colon): 31.4 µM | TGI (U251 CNS): 50.6 µM | TGI (T-47D breast): 42.3 µM | TGI (CAKI-1 renal): 35.5 µM | TGI (SN12C renal): 34.5 µM | TGI (SK-MEL-5 melanoma): 29.6 µM | TGI (SK-MEL-28 melanoma): 35.7 µM | TGI (786-0 renal): 32.7 µM

OC(c1cc(-c2ccccc2)nc2c1ccc1ccccc12)C1CCCCN1 (stereo not drawn)
TGI (UO-31 renal): 2.45 µM | TGI (HL-60(TB) leukemia): 1.13 µM | TGI (SF-268 CNS): 2.88 µM | TGI (MDA-N): 2.97 µM | TGI (OVCAR-3 ovarian): 3.29 µM | TGI (EKVX NSCLC): 5.4 µM | TGI (IGROV1 ovarian): 2.98 µM | TGI (ACHN renal): 3.26 µM | TGI (NCI-H460 lung): 3.62 µM | TGI (SF-295 CNS): 3.44 µM | TGI (HCT-116 colon): 2.92 µM | TGI (NCI-H226 lung): > 100 µM | TGI (BT-549 breast): 25 µM | TGI (HOP-92 NSCLC): 3.56 µM | TGI (KM12 colon): 3.35 µM | TGI (SK-MEL-2 melanoma): 3.17 µM | TGI (MDA-MB-435): 3.33 µM | TGI (UACC-62 melanoma): 3.46 µM | TGI (MDA-MB-231 breast): 3.36 µM | TGI (SK-OV-3 ovarian): 3.32 µM | TGI (MALME-3M melanoma): 3.19 µM | TGI (SNB-75 CNS): 3.43 µM | TGI (DU-145 prostate): 3.45 µM | TGI (TK-10 renal): 3.5 µM | TGI (UACC-257 melanoma): 3.41 µM | TGI (A498 renal): 3.76 µM | TGI (HOP-62 NSCLC): 3.24 µM | TGI (MOLT-4 leukemia): > 100 µM | TGI (RXF 393 renal): 3.03 µM | TGI (HS 578T breast): 3.53 µM | TGI (K-562 leukemia): > 100 µM | TGI (PC-3 prostate): 3.07 µM | TGI (M14 melanoma): 3.22 µM | TGI (HCC-2998 colon): 0.586 µM | TGI (U251 CNS): 3.15 µM | TGI (CAKI-1 renal): 4.04 µM | TGI (SN12C renal): 3.1 µM | TGI (SK-MEL-5 melanoma): 8.55 µM | TGI (SK-MEL-28 melanoma): 3.18 µM | TGI (786-0 renal): 3.04 µM

COC(=O)C(NC(=O)CSc1nnc(COc2ccc(Cl)cc2)n1-c1ccccc1)C(C)C (stereo not drawn)
TGI (UO-31 renal): > 100 µM | TGI (CCRF-CEM leukemia): > 100 µM | TGI (HL-60(TB) leukemia): > 100 µM | TGI (SF-268 CNS): 44.9 µM | TGI (MDA-N): 32.1 µM | TGI (OVCAR-3 ovarian): 31.5 µM | TGI (SW-620 colon): > 100 µM | TGI (EKVX NSCLC): 73.1 µM | TGI (IGROV1 ovarian): 36.8 µM | TGI (HT29 colon): 44.5 µM | TGI (ACHN renal): > 100 µM | TGI (NCI-H460 lung): 99.3 µM | TGI (NCI-H522 lung): 24.7 µM | TGI (SF-295 CNS): 42.2 µM | TGI (LOX IMVI melanoma): 88.1 µM | TGI (HCT-116 colon): 31.4 µM | TGI (NCI-H226 lung): 33 µM | TGI (OVCAR-5 ovarian): 75.9 µM | TGI (SNB-19 CNS): 73 µM | TGI (HOP-92 NSCLC): 77.2 µM | TGI (HCT-15 colon): > 100 µM | TGI (KM12 colon): 38.5 µM | TGI (NCI-H23 lung): 69.3 µM | TGI (COLO 205 colon): 48.6 µM | TGI (SK-MEL-2 melanoma): 35.1 µM | TGI (MDA-MB-435): 43 µM | TGI (UACC-62 melanoma): 36.1 µM | TGI (MDA-MB-231 breast): 35.1 µM | TGI (SK-OV-3 ovarian): > 100 µM | TGI (MALME-3M melanoma): 31.9 µM | TGI (NCI/ADR-RES ovarian): 82.1 µM | TGI (A549 NSCLC): > 100 µM | TGI (SNB-75 CNS): 38.9 µM | TGI (DU-145 prostate): > 100 µM | TGI (OVCAR-8 ovarian): 64.7 µM | TGI (TK-10 renal): 36.2 µM | TGI (UACC-257 melanoma): 34 µM | TGI (A498 renal): > 100 µM | TGI (HOP-62 NSCLC): 35.2 µM | TGI (SR leukemia): > 100 µM | TGI (MOLT-4 leukemia): > 100 µM | TGI (RXF 393 renal): 57.5 µM | TGI (K-562 leukemia): > 100 µM | TGI (OVCAR-4 ovarian): 74.1 µM | TGI (PC-3 prostate): 50.9 µM | TGI (M14 melanoma): 58 µM | TGI (SF-539 CNS): > 100 µM | TGI (MCF7 breast): > 100 µM | TGI (HCC-2998 colon): 38.7 µM | TGI (U251 CNS): > 100 µM | TGI (T-47D breast): 70.6 µM | TGI (CAKI-1 renal): 25.1 µM | TGI (SN12C renal): 37.1 µM | TGI (SK-MEL-28 melanoma): 51.6 µM | TGI (786-0 renal): 38.8 µM

CCCC(=O)Nc1cc(/C=C/C(=O)N2CC(CCl)c3ccc(N)cc32)n(C)c1 (stereo not drawn)
TGI (SF-268 CNS): > 100 µM | TGI (MDA-N): 0.675 µM | TGI (OVCAR-3 ovarian): > 100 µM | TGI (SW-620 colon): > 100 µM | TGI (HT29 colon): > 100 µM | TGI (NCI-H460 lung): 0.796 µM | TGI (NCI-H522 lung): 0.0834 µM | TGI (LOX IMVI melanoma): > 100 µM | TGI (HCT-116 colon): 14.1 µM | TGI (NCI-H226 lung): > 100 µM | TGI (OVCAR-5 ovarian): > 100 µM | TGI (SNB-19 CNS): > 43.2 µM | TGI (BT-549 breast): 0.813 µM | TGI (HCT-15 colon): > 100 µM | TGI (NCI-H23 lung): 0.809 µM | TGI (COLO 205 colon): 0.3 µM | TGI (SK-MEL-2 melanoma): 0.572 µM | TGI (UACC-62 melanoma): 0.304 µM | TGI (SK-OV-3 ovarian): > 100 µM | TGI (MALME-3M melanoma): 0.507 µM | TGI (A549 NSCLC): > 100 µM | TGI (DU-145 prostate): 2.77 µM | TGI (TK-10 renal): 0.471 µM | TGI (A498 renal): 0.0523 µM | TGI (HOP-62 NSCLC): > 100 µM | TGI (SR leukemia): 0.594 µM | TGI (K-562 leukemia): > 100 µM | TGI (OVCAR-4 ovarian): 0.697 µM | TGI (PC-3 prostate): > 100 µM | TGI (M14 melanoma): > 100 µM | TGI (SF-539 CNS): 0.429 µM | TGI (HCC-2998 colon): 0.34 µM | TGI (U251 CNS): > 40.9 µM | TGI (T-47D breast): 0.601 µM | TGI (CAKI-1 renal): 0.385 µM | TGI (SN12C renal): 6.62 µM | TGI (786-0 renal): 2.92 µM
